Measurements published in patent publication US7015309B1 (The Wistar Institute of Anatomy and Biology, priority 1999, dated 2006).
Like-named read-outs stand apart in the source and are kept apart here. Non-standard residues stand in square brackets, D forms with d. Residues, ends and D or L forms follow the SMILES beside them. No end group written: not given here. ξ: configuration not given here. Ac6c = NC1(C(=O)O)CCCCC1; Dap = NC[C@H](N)C(=O)O; ξDap = NCC(N)C(=O)O

How the values were obtained:
[1] = tested on: Agrobacterium tumefaciens
Experimental: (§1) Growth inhibition assays were performed using the peptides of Example 1 and the Gram positive microorganisms Micrococcus luteus and Bacillus megaterium, and the Gram negative microorganisms, Escherichia coli D22, Agrobacterium tumefaciens, and Salmonella typhimurium. Anti-bacterial assays were performed in sterilized 96-well plates (Nunc F96 microtiter plates) with a final volume of 100 μl as described in Bulet (1996), cited above. Briefly, 90 μl of a suspension of a midlogarithmic phase bacterial culture at an initial 600 nm UV absorbence of 0.001 in Luria-Bertani rich nutrient medium was added to 10 μl of serially diluted peptides in sterilized water. The final peptide concentrations ranged between 0.15 and 80 μM. The plates were incubated at 30° C. for 24 hours with gentle shaking, and the growth inhibition was measured by recording the increase of the UV absorbence at 600 nm on an SLT Labinstruments 400 ATC microplate reader. The experiments were conducted over a 7-month period.

[2] = tested on: Bacillus megaterium
Experimental: as §1

[3] = tested on: Micrococcus luteus
Experimental: as §1

[4] = tested on: Salmonella typhimurium
Experimental: as §1

[5] = mouse serum, 45-minute digestion, MALDI-MS peak height
Experimental: (§2) Owing to the fact that the use of diluted serum increases peptide recovery as well as retards the reaction kinetics to a manageable rate, the experiments were conducted using 25% aqueous sera.
(§3) For serum stability studies, 10 μl of an aqueous peptide stock solution containing about 0.8 mg/ml peptide was added to 200 μl 25% aqueous pooled mouse or human serum (Sigma, St. Louis, Mo.), according to the process described in M. F. Powell et al, Pharmacol Res, 10: 1268–1273 (1993). The peptide-serum mixture was thermostated at 37° C. After 0 minutes, 45 minutes, 2 hours and 4 hours, three samples of each peptide were taken and precipitated by the addition of 40 μl 15% aqueous trichloroacetic acid. The samples were stored at 4° C. for 20 minutes and centrifuged. The peptides and some remaining serum proteins were recovered in the supernatant after the trichloroacetic acid precipitation. The supernatants were immediately frozen on dry-ice and 220 μl of each were analyzed on RP-HPLC. A mouse serum and two different batches of the same SIGMA catalog number of human sera (human 1, approximately 1 year old, and human 2, approximately 1 month old) were also used.
(§4) The lyophilized samples were redissolved in 0.1 aqueous TFA and submitted for matrix assisted laser desorption/ionization (MALDI-MS).
(§5) The missing residues are indicated (e.g—C2 means that the C-terminal two residues are cleaved off). […] In Table 4, the relative amounts of the degradation products are estimated based on the MALDI-MS peak heights. 0=not detected; 1=very weak (below 5000), 2=weak (5–10000), 3=medium (10–15000), 4=strong (15000-uncleaved molecular ion at 25–30000), 5=very strong (above uncleaved molecular ion).

[6] = for Degradation product −C1, relative amount / Degradation product −C2, relative amount / Degradation product −C3, relative amount / Degradation product −C6, relative amount / Degradation product −N3, C2, relative amount / Degradation product −N3, relative amount / Degradation product −N5, C2, relative amount / Degradation product −N5, relative amount: 45-minute digestion
Experimental: as §2, §3, §4, §5

[7] = native glycosylated drosocin; cited from earlier work
[8] = tested on: bacteria; conditions: cited from earlier work
[9] = within a four-hour period; cited from earlier work
[10] = within a four-hour period; cited from earlier work; remark: listed apart in the source
[11] = tested on: Escherichia coli D22; conditions: read-out: IC50 in μM against Escherichia coli D22; 30° C., 24 hours; for Peptide 22 original assay (a)
Experimental: as §1

[12] = tested on: sheep erythrocytes; assay: Hemolytic activity, release of hemoglobin; conditions: for Absorbence at 405 nm: one hour, 39° C.; for toxicity to sheep erythrocytes (in words): 256 μM concentration
Experimental: To determine whether native and modified pyrrhocoricin peptides were toxic to mammalian cells, several peptides from Example 1 above, a positive control, and a negative control were examined for hemolytic activity. Hemolytic activity was assayed with sheep erythrocytes suspended in Alsever's solution (BioWhittaker, Walkersville, Md.), and diluted with Dulbecco's phosphate-buffered saline, pH 7.2. Thirty μL of a 1% suspension of the red blood cells was incubated with agitation at 39° C. with 30 μL of 40 to 256 μM of each of the following peptides dissolved in phosphate buffered saline for one hour and centrifuged at 1000 g for five minutes. Fifty μL of the supernatant was collected and the release of hemoglobin was detected by measuring the ultraviolet absorbences of triplicate samples of the 40 μM or 256 μM test peptides and the control peptides at 405 nm.

[13] = tested on: COS cells; assay: Direct killing of immortalized COS cells; type: cell-based
Excerpt: In another toxicity assay, COS cell survival was studied for pyrrhocoricin and cecropin B (Bachem Biosciences, King of Prussia, Pa.) as the positive control.

[14] = In vivo toxicity control, uninfected mice; design: species or system mice of CD-1 strain; conditions: 50 mg/kg dose, intravenous
[15] = in vitro; conditions: mouse, 25% aqueous pooled mouse serum
Experimental: as §2, §3, §4, §5

[16] = human 1 serum (approximately 1 year old)
[17] = human 2 serum (approximately 1 month old)

Row | Compound | Degradation product −C1, relative amount [5] | Degradation product −C2, relative amount [5] | Degradation product −C3, relative amount [5] | Degradation product −C6, relative amount [5] | Degradation product −N3, C2, relative amount [5] | Degradation product −N3, relative amount [5] | Degradation product −N5, C2, relative amount [5] | Degradation product −N5, relative amount [5] | Degradation product −C1, relative amount [6, 16] | Degradation product −C2, relative amount [6, 16] | Degradation product −C3, relative amount [6, 16] | Degradation product −C6, relative amount [6, 16] | Degradation product −N3, C2, relative amount [6, 16] | Degradation product −N3, relative amount [6, 16] | Degradation product −N5, C2, relative amount [6, 16] | Degradation product −N5, relative amount [6, 16] | Degradation product −C1, relative amount [6, 17] | Degradation product −C2, relative amount [6, 17] | Degradation product −C3, relative amount [6, 17] | Degradation product −C6, relative amount [6, 17] | further results
1 | CC[C@H](C)[C@H](NC(=O)[C@@H]1CCCN1C(=O)[C@H](CCCNC(=N)N)NC(=O)[C@@H]1CCCN1C(=O)[C@@H]1CCCN1C(=O)[C@@H](NC(=O)[C@@H]1CCCN1C(=O)[C@H](CCCNC(=N)N)NC(=O)[C@@H]1CCCN1C(=O)[C@H](CC(C)C)NC(=O)[C@H](Cc1ccc(O)cc1)NC(=O)[C@H](CO)NC(=O)CNC(=O)[C@H](CCCCN)NC(=O)[C@H](CC(=O)O)NC(=O)[C@@H](NC(=O)[C@H](CCCNC(=N)N)NC(C)=O)C(C)C)[C@@H](C)O)C(=O)N[C@@H](Cc1ccc(O)cc1)C(=O)N[C@@H](CC(N)=O)C(=O)N[C@@H](CCCNC(=N)N)C(=O)N[C@@H](CNC(C)=O)C(N)=O [Peptide 22] (Ac-RVDKGSYLPRPTPPRPIYNR[Dap](Ac)-NH2) | 0 | 2 (2=weak (5–10000)) | 0 | 0 | 0 | 0 | 0 | 0 | 0 | 5 | 3 (3=medium (10–15000)) | 0 | 1 (1=very weak (below 5000)) | 2 (2=weak (5–10000)) | 2 (2=weak (5–10000)) | 3 (3=medium (10–15000)) | 0 | 5 | 0 | 0 | IC50 [1]: 0.6 µM; IC50 ([1]; 24 h): 2.5 µM; IC50 ([2]; Bacillus): 80 µM; IC50 ([2]; Bacillus, 24 h): 40 µM; IC50 [3]: 10 µM; IC50 ([3]; 24 h): 10 µM; IC50 ([4]; murium): 2.5 µM; IC50 ([4]; murium, 24 h): 2.5 µM; Degradation product −N3, C2, relative amount [6, 17]: 0; Degradation product −N3, relative amount [6, 17]: 2 (2=weak (5–10000)); Degradation product −N5, C2, relative amount [6, 17]: 0; Degradation product −N5, relative amount [6, 17]: 1 (1=very weak (below 5000)); degradation rate compared with other peptides (in words) (25% sera, data not shown): degrades considerably faster than either Peptide 1 or Peptide 21
2 | GKPRPYSPRPTSHPRPIRV [drosocin] | – | – | – | – | – | – | – | – | – | – | – | – | – | – | – | – | – | – | – | – | anti-bacterial activity when injected into mice (in words) [7]: no anti-bacterial activity; time needed to kill bacteria in vitro [8]: 12 to 24 h; degradation in diluted human serum (in words) [9]: completely degraded; degradation in diluted mouse serum (in words) [10]: completely degraded
3 | VDKGSYLPRPTPPRPIYNRN-NH2 [Peptide 1] | 2 (2=weak (5–10000)) | 2 (2=weak (5–10000)) | 0 | 0 | 0 | 0 | 0 | 0 | 3 (3=medium (10–15000)) | 4 (4=strong (15000-uncleaved molecular ion at 25–30000)) | 3 (3=medium (10–15000)) | 1 (1=very weak (below 5000)) | 0 | 0 | 0 | 2 (2=weak (5–10000)) | 2 (2=weak (5–10000)) | 2 (2=weak (5–10000)) | 0 | 0 | IC50 ([1]; read-out: IC50 in μM against Agrobacterium tumefaciens, 30° C., 24 hours, for Peptide 22 original assay (a)): < 0.075 µM; IC50 ([2]; read-out: IC50 in μM against Bacillus megaterium, 30° C., 24 hours, for Peptide 22 original assay (a)): 5 µM; IC50 [11]: < 0.075 µM; IC50 ([3]; read-out: IC50 in μM against Micrococcus luteus, 30° C., 24 hours, for Peptide 22 original assay (a)): 10 µM; IC50 ([4]; read-out: IC50 in μM against Salmonella typhimurium, 30° C., 24 hours, for Peptide 22 original assay (a)): 0.6 µM; Absorbence at 405 nm ([12]; 40 μM peptide): 0.108 ± 0.015; toxicity to sheep erythrocytes (in words) [12]: completely non-toxic; Absorbence at 405 nm ([12]; 256 μM peptide): 0.0135 ± 0.005; Cell Count after Treatment ([13]; 5 μM peptide): 18 ± 4; Cell Count after Treatment ([13]; 10 μM peptide): 12 ± 4; Cell Count after Treatment ([13]; 50 μM peptide): 11 ± 1; effect on cell count and rate of proliferation (in words) ([13]; up to 50 μM/mL concentration): did not change; toxicity of peptide alone (in words) [14]: Neither Peptides 1 nor 21 [SEQ ID NOS: 6 and 22, respectively] alone showed any toxicity; Degradation product −N3, C2, relative amount [6, 17]: 0; Degradation product −N3, relative amount [6, 17]: 0; Degradation product −N5, C2, relative amount [6, 17]: 0; Degradation product −N5, relative amount [6, 17]: 0; remaining at 8 h [15]: 20%
4 | CC[C@H](C)[C@H](NC(=O)[C@@H]1CCCN1C(=O)[C@H](CCCNC(=N)N)NC(=O)[C@@H]1CCCN1C(=O)[C@@H]1CCCN1C(=O)[C@@H](NC(=O)[C@@H]1CCCN1C(=O)[C@H](CCCNC(=N)N)NC(=O)[C@@H]1CCCN1C(=O)[C@H](CC(C)C)NC(=O)[C@H](Cc1ccc(O)cc1)NC(=O)[C@H](CO)NC(=O)CNC(=O)[C@H](CCCCN)NC(=O)[C@H](CC(=O)O)NC(=O)C1(N)CCCCC1)[C@@H](C)O)C(=O)N[C@@H](Cc1ccc(O)cc1)C(=O)N[C@@H](CC(N)=O)C(=O)N[C@@H](CCCNC(=N)N)C(=O)NC(CNC(C)=O)C(N)=O (stereo partly drawn) [Peptide 21, 1-aminocyclo-hexane carboxylic acid (Chex)-Pyrrhocoricin-β-acetyl-2,3-diamino propionic amide [Dap(Ac)]] (H-[Ac6c]DKGSYLPRPTPPRPIYNR[ξDap](Ac)-NH2) | 0 | 2 (2=weak (5–10000)) | 0 | 0 | 0 | 0 | 0 | 2 (2=weak (5–10000)) | 0 | 4 (4=strong (15000-uncleaved molecular ion at 25–30000)) | 2 (2=weak (5–10000)) | 0 | 0 | 0 | 1 (1=very weak (below 5000)) | 2 (2=weak (5–10000)) | 0 | 4 (4=strong (15000-uncleaved molecular ion at 25–30000)) | 0 | 0 | Absorbence at 405 nm ([12]; 40 μM peptide): 0.110 ± 0.049; toxicity to sheep erythrocytes (in words) [12]: completely non-toxic; Absorbence at 405 nm ([12]; 256 μM peptide): 0.143 ± 0.006; toxicity of peptide alone (in words) [14]: Neither Peptides 1 nor 21 [SEQ ID NOS: 6 and 22, respectively] alone showed any toxicity; Degradation product −N3, C2, relative amount [6, 17]: 0; Degradation product −N3, relative amount [6, 17]: 0; Degradation product −N5, C2, relative amount [6, 17]: 1 (1=very weak (below 5000)); Degradation product −N5, relative amount [6, 17]: 2 (2=weak (5–10000)); resistance in human serum compared with Peptide 1 (in words) ([6]; human serum): generally more resistant than Peptide 1; peptide still present (in words) (after 8 hours of digestion, all sera studied): traces; remaining at 8 h [15]: 20%
